Measured values taken from publication PMC11921695 (BMC Cancer, 2025).
“And” between values parts separate entries of the source, which are not always exact repeats. Identical values can stand only once. Like-named read-outs stand apart in the source and are kept apart here.

Assays:
CYPs 3A, 1A and 2C9 = system: CYPs 3A, 1A and 2C9; parameters: method as in Investigator Brochure; details: protocol background; ref Investigator Brochure; cited from earlier work
[1] = type: in vivo; details: trough plasma, individual patients
Protocol: Peripheral blood w ill be sent to Lab21 for anti-retroviral drug levels on Cycle 1 D ay 1 Pre-
treatment, Cycle 1 Day 15 and Cycle 4 D ay 22/Cycle 5 Day 1. […]
• 5mls of venous blood should be collected into a K2- ED TA BD vacutainer
• Samples should be inverted several times to ensure adequate mix ing. […]
• Samples should be stored at - 200C. […]
Ant i-retroviral drug lev els
• Samples to be collected Cycle 1 Day 1 Pre- treatment and Cycle 1 Day 15 and Cycle 4 Day […]
• 2x 1000 µl of plasma should be aliquoted to 1.5 ml plastic screw top tubes.
• Samples should be stored at - 200C (or below) for 24 hours befor e sending. […]
Therapeutic drug monitoring of the cART therapies was undertaken by Lab 21 Ltd (Cambridge, UK). Blood plasma was prepared from 5 ml of venous blood collected in K2-EDTA BD vacutainer tubes from kits provided by Covance. Samples were centrifuged at 2000 g for 20 minutes at room temperature, frozen at sites, packed in dry ice and sent to Lab 21 Ltd (Cambridge, UK) where they were stored at -20°C prior to analysis.

[2] = type: in vivo; details: trough plasma, Cycle 5 Day 15, individual patient
[3] = system: non-small cell lung cancer; parameters: method as in SCART protocol 7.3.1; details: selumetinib 75mg bd + docetaxol 75mg/m2 iv day 1 every 21 days (combination arm) or chemotherapy alone arm; ref SCART protocol 7.3.1; cited from earlier work
Kaposi's sarcoma = system: Kaposi's sarcoma; parameters: method as in Tulpule, et al. 2002; details: 100mg/m2 q 2 weeks, second-line; ref Tulpule, et al. 2002; cited from earlier work
[4] = Cycle 1 Day 1 (pre-selumetinib), selumetinib starting dose 75 mg bd
[5] = Cycle 1 Day 15, selumetinib starting dose 75 mg bd
[6] = Cycle 1 Day 1 (pre-selumetinib), selumetinib starting dose 50 mg bd
[7] = Cycle 1 Day 15, selumetinib starting dose 50 mg bd
[8] = Cycle 5 Day 1, selumetinib starting dose 50 mg bd
[9] = Cycle 5 Day 1, selumetinib starting dose 75 mg bd

Antiretroviral drug Concentration [1, 6] | Antiretroviral drug Concentration [1, 7] | Antiretroviral drug Concentration [1, 8] | SMILES | Antiretroviral drug Concentration [1, 4] | Antiretroviral drug Concentration [1, 5] | also measured
– | – | – | Cn1cnc2c(F)c(Nc3ccc(Br)cc3Cl)c(C(=O)NOCCO)cc21 [AZD6244] | – | – | induction of CYPs 3A, 1A and 2C9 (CYPs 3A, 1A and 2C9): weak
– | – | – | Nc1nc(NC2CC2)c2ncn([C@H]3C=C[C@@H](CO)C3)c2n1 [Abacavir] | 1060 ng/mL | 246 ng/mL | –
– | – | – | COC(=O)N[C@H](C(=O)N[C@@H](Cc1ccccc1)[C@@H](O)CN(Cc1ccc(-c2ccccn2)cc1)NC(=O)[C@@H](NC(=O)OC)C(C)(C)C)C(C)(C)C [Atazanavir] | 758 ng/mL | 5797 ng/mL | –
– | – | – | Nc1ccn([C@@H]2CS[C@H](CO)O2)c(=O)n1 [Lamivudine] | 817 ng/mL | 512 ng/mL | –
516 ng/mL and 94 ng/mL | 462 ng/mL and 575 ng/mL and 246 ng/mL | 328 ng/mL and 566 ng/mL | CC(C)c1nc(CN(C)C(=O)N[C@H](C(=O)N[C@@H](Cc2ccccc2)C[C@H](O)[C@H](Cc2ccccc2)NC(=O)OCc2cncs2)C(C)C)cs1 [Ritonavir] | 364 ng/mL and 342 ng/mL | 1585 ng/mL and 564 ng/mL | Antiretroviral drug Concentration [1, 9]: 431 ng/mL
133 ng/mL and 15 ng/mL and 90 ng/mL | 51 ng/mL and 234 ng/mL and 43 ng/mL | 55 ng/mL | C[C@H](Cn1cnc2c(N)ncnc21)OCP(=O)(O)O [Tenofovir] | 84 ng/mL and 30 ng/mL and 60 ng/mL and 130 ng/mL and 90 ng/mL | 123 ng/mL and 46 ng/mL and 239 ng/mL and 40 ng/mL | Antiretroviral drug Concentration [1, 9]: 135 ng/mL and 104 ng/mL; Antiretroviral drug Concentration ([2]; selumetinib starting dose 50 mg bd): 230 ng/mL; Antiretroviral drug Concentration ([2]; selumetinib starting dose 75 mg bd): 143 ng/mL
– | – | – | CC(=O)O[C@@]12CO[C@@H]1C[C@H](O)[C@@]1(C)C(=O)[C@H](O)C3=C(C)[C@@H](OC(=O)[C@H](O)[C@@H](NC(=O)OC(C)(C)C)c4ccccc4)C[C@@](O)([C@@H](OC(=O)c4ccccc4)[C@H]21)C3(C)C [docetaxol] | – | – | febrile neutropenia, patients [3]: 0/42
– | – | – | CC(=O)O[C@H]1C(=O)[C@@]2(C)[C@H]([C@H](OC(=O)c3ccccc3)[C@]3(O)C[C@H](OC(=O)[C@H](O)[C@@H](NC(=O)c4ccccc4)c4ccccc4)C(C)=C1C3(C)C)[C@]1(OC(C)=O)CO[C@@H]1C[C@@H]2O [paclitaxel] | – | – | median PFS (Kaposi's sarcoma): 39 weeks; response rate (Kaposi's sarcoma): 56%

SMILES | Antiretroviral drug Concentration [1, 6] | Antiretroviral drug Concentration [1, 7] | Antiretroviral drug Concentration [1, 8] | Antiretroviral drug Concentration [1, 4] | Antiretroviral drug Concentration [1, 5] | also measured
O=C1Nc2ccc(Cl)cc2[C@@](C#CC2CC2)(C(F)(F)F)O1 [Efavirenz] | 4545 ng/mL | 4180 ng/mL | 6257 ng/mL | 3378 ng/mL | 3139 ng/mL | –
